Molecules are shown by their SMILES. Like-named read-outs stand apart in the source and are kept apart here. *1 amine or outer side, *2 acyl side, *3 side chain or, on linkers, in order; H or OH if unused. Where a SMILES comes first, the peptide text is derived from it. Bridges are numbered along the chain shown (N, C = ends). [ ]: non-standard residue; d: D form. Bip = N[C@@H](Cc1ccc(-c2ccccc2)cc1)C(=O)O; 2Nal = N[C@@H](Cc1ccc2ccccc2c1)C(=O)O; AEF = NCCOc1ccc(C[C@H](N)C(=O)O)cc1; αMeL = CC(C)C[C@](C)(N)C(=O)O; CH2COCH2 = O=C(C[*:1])C[*:2] Bounds are passed on as bounds.

The values below come from US20250154198A1, “PEPTIDE INHIBITORS OF INTERLEUKIN-23 RECEPTOR” (Zealand Pharma A/S, priority 2021, published 2025).

In experiment [1] the target is T1, human IL-23R (Homo sapiens, UniProt Q5VWK5).
T1 construct: UniProtKB—Q5VWK5, amino acids 22-629; secretion signal of the plasmid (Promega N1371); expressed in transfected cells
T1 sequence (Q5VWK5 22-629): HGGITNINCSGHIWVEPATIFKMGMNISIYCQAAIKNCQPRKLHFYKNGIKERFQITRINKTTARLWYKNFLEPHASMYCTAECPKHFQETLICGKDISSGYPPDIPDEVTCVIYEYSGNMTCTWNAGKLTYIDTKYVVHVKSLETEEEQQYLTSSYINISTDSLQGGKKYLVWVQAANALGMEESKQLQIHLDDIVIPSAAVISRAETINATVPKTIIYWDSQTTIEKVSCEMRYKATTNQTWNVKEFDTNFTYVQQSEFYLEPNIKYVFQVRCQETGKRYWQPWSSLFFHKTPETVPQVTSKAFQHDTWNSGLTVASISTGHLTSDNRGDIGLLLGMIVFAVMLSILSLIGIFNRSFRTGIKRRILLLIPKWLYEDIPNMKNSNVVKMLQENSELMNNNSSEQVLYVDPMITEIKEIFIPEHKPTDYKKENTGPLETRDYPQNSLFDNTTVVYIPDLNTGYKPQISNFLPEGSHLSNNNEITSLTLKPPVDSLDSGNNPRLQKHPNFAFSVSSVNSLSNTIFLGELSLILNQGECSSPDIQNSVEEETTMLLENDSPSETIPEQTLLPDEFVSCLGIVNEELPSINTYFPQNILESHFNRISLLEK
The experiment in a line: Binding assay (NanoBRET displacement of fluorophore-labelled reference compound) for estimating binding affinity to human IL-23R.

Experiment [2] concerns the target IL-23 mediated phospho-STAT3 formation in DB cells (Homo sapiens, UniProt Q5VWK5). Nature of the experiment: Functional inhibition of IL-23 mediated STAT3 signalling (phospho-STAT3 Tyr705 MSD) in DB cells. Type of experiment: cell-based. The text has this: Functional Inhibition of IL-23 Mediated STAT3 Signalling by Compounds
Upon binding of IL-23, the IL-23R forms a heterodimer signalling complex together with IL-12R β1, which through the JAK2/STAT3 pathway promotes phosphorylation of STAT3 to form phospho-STAT3.
The assay was used to quantify the functional antagonism of a compound and to rank order the inhibitor compounds according to their potency. For compounds tested in this assay, the response was normalized relative to control values to calculate the IC50 and maximal inhibitory response from a concentration response curve of the compound in presence of a fixed concentration of human IL-23.
The assay procedure was as follows. […] Following preincubation of the DB cells with inhibitor for 15 min in a cell incubator (37° C., 5% CO2), 20 μL of the prepared 3× the EC80 of hIL-23 solution was added to each well and incubated for 90 min in a cell incubator (37° C., 5% CO2). For some wells buffer only or IL-23 only corresponding to the EC80 was added to obtain readouts needed for normalization. To terminate the assay, the plate was spun at 1000 G for 5 min to pellet cells, the supernatant removed using an 8-channel manual pipette, and then added 50 μL/well Complete Lysis Buffer from the MSD STAT3 kit (Cat #K150SVD, Mesoscale) to the cell pellet. To completely lyse cells to release phospho-STAT3 for detection, the plate was shaken for 10 min at room temperature (500 rpm) sealed with aluminum foil and placed at −80° C. for a minimum of 15 min. Detection of the phospho-STAT3 level in the cell lysate from the individual wells was determined using the MSD STAT3 kit (Cat #K150SVD, Mesoscale) and read on a Meso QuickPlex SQ 120 plate reader (Mesoscale).
For data analysis raw data counts from the Meso QuickPlex SQ 120 plate reader were normalized relative to the response by the EC80 of hIL-23 alone (no compound added) and the buffer level. Compound potency (IC50) and maximal inhibitory response (% inhibition) were estimated by computer-aided curve fitting using a 4-parameter logistic (4PL) non-linear model.

[3] abbreviates: Table 2-7b, read-out: Ki IL-23R.
[4] abbreviates: Table 2-7b, DB cells, read-out: IC50 (pSTAT3).
[5] abbreviates: Table 3-1, DB cells, read-out: IC50 (pSTAT3).
Setting [6] is: Table 3-1, read-out: Ki hIL-23R.

In the case of `CC(=O)N[C@@H](CC(=O)O)C(=O)N[C@H]1CCCCNC(=O)CC[C@@H](C(=O)N[C@@H](CCCNC(=N)N)C(N)=O)NC(=O)[C@H](CC(C)C)NC(=O)[C@H](Cc2ccc3ccccc3c2)NC(=O)[C@H](Cc2c[nH]c3ccccc23)NC(=O)[C@@H]2CSCC(=O)CSC[C@H](NC(=O)[C@H](CO)NC1=O)C(=O)N[C@@H](Cc1c[nH]c3ccccc13)C(=O)N[C@@H](CCC(N)=O)C(=O)N2` [Compound 19, [Ac]-DK(1c)SC(2a)WQC(2a)W[2-Nal]LE(1c)R-[NH2]] (HELM PEPTIDE1{[ac].D.K.S.C.W.Q.C.W.[O=C([C@H](Cc1ccc2ccccc2c1)N[*:1])[*:2]].L.E.R.[am]}|CHEM1{[O=C(C[*:1])C[*:2]]}$PEPTIDE1,PEPTIDE1,3:R3-12:R3|PEPTIDE1,CHEM1,5:R3-1:R1|PEPTIDE1,CHEM1,8:R3-1:R2$$$V2.0), the Ki in experiment [1] (Table 2-6b, read-out: Ki IL-23R) is 6.32 nM. For the same compound, in experiment [2] (Table 2-6b, DB cells, read-out: IC50 (pSTAT3)), the IC50 was 32.3 nM.

On to `CC(=O)N[C@@H](CC(=O)O)C(=O)N[C@H]1CCCCNC(=O)CC[C@@H](C(=O)N[C@@H](CCCNC(=N)N)C(N)=O)NC(=O)[C@H](CC(C)C)NC(=O)[C@H](Cc2ccc3ccccc3c2)NC(=O)[C@H](Cc2c[nH]c3ccccc23)NC(=O)[C@@H]2CSCc3ccccc3CSC[C@H](NC(=O)[C@H](CO)NC1=O)C(=O)N[C@@H](Cc1c[nH]c3ccccc13)C(=O)N[C@@H](CCC(N)=O)C(=O)N2` [Compound 20, [Ac]-DK(1c)SC(2d)WQC(2d)W[2-Nal]LE(1c)R-[NH2]] (HELM PEPTIDE1{[ac].D.K.S.C.W.Q.C.W.[O=C([C@H](Cc1ccc2ccccc2c1)N[*:1])[*:2]].L.E.R.[am]}|CHEM1{[c1ccc(C[*:2])c(C[*:1])c1]}$PEPTIDE1,PEPTIDE1,3:R3-12:R3|PEPTIDE1,CHEM1,5:R3-1:R1|PEPTIDE1,CHEM1,8:R3-1:R2$$$V2.0), for which the Ki in experiment [1] (setting [3]) was 24.6 nM. The IC50 in experiment [2] (setting [4]) was determined as 79.2 nM.

Regarding `CC(=O)N[C@@H](CC(=O)O)C(=O)N[C@H]1CCCCNC(=O)CC[C@@H](C(=O)N[C@@H](CCCNC(=N)N)C(N)=O)NC(=O)[C@H](CC(C)C)NC(=O)[C@H](Cc2ccc3ccccc3c2)NC(=O)[C@H](Cc2c[nH]c3ccccc23)NC(=O)[C@@H]2CSCc3cccc(c3)CSC[C@H](NC(=O)[C@H](CO)NC1=O)C(=O)N[C@@H](Cc1c[nH]c3ccccc13)C(=O)N[C@@H](CCC(N)=O)C(=O)N2` [Compound 21, [Ac]-DK(1c)SC(2e)WQC(2e)W[2-Nal]LE(1c)R-[NH2]] (HELM PEPTIDE1{[ac].D.K.S.C.W.Q.C.W.[O=C([C@H](Cc1ccc2ccccc2c1)N[*:1])[*:2]].L.E.R.[am]}|CHEM1{[c1cc(C[*:1])cc(C[*:2])c1]}$PEPTIDE1,PEPTIDE1,3:R3-12:R3|PEPTIDE1,CHEM1,5:R3-1:R1|PEPTIDE1,CHEM1,8:R3-1:R2$$$V2.0), the Ki in experiment [1] (setting [3]) was 634 nM. Also, the IC50 in experiment [2] (setting [4]) and in experiment [2] (setting [5]) was above 1000 nM each time.

With `CC(=O)N[C@@H](CC(=O)O)C(=O)N[C@H]1CCCCNC(=O)CC[C@@H](C(=O)N[C@@H](CCCNC(=N)N)C(N)=O)NC(=O)[C@H](CC(C)C)NC(=O)[C@H](Cc2ccc3ccccc3c2)NC(=O)[C@H](Cc2c[nH]c3ccccc23)NC(=O)[C@@H]2CSCc3ccc(cc3)CSC[C@H](NC(=O)[C@H](CO)NC1=O)C(=O)N[C@@H](Cc1c[nH]c3ccccc13)C(=O)N[C@@H](CCC(N)=O)C(=O)N2` [Compound 22, [Ac]-DK(1c)SC(2f)WQC(2f)W[2-Nal]LE(1c)R-[NH2]] (HELM PEPTIDE1{[ac].D.K.S.C.W.Q.C.W.[O=C([C@H](Cc1ccc2ccccc2c1)N[*:1])[*:2]].L.E.R.[am]}|CHEM1{[c1cc(C[*:2])ccc1C[*:1]]}$PEPTIDE1,PEPTIDE1,3:R3-12:R3|PEPTIDE1,CHEM1,5:R3-1:R1|PEPTIDE1,CHEM1,8:R3-1:R2$$$V2.0), the Ki in experiment [1] (setting [3]) was 563 nM. Further, the IC50 in experiment [2] (setting [4]) and in experiment [2] (setting [5]) was above 1000 nM each time.

On to `CC(=O)N[C@H]1CCCCNC(=O)CC[C@@H](C(=O)N[C@@H](CCCNC(=N)N)C(N)=O)NC(=O)[C@H](CC(C)C)NC(=O)[C@H](Cc2ccc3ccccc3c2)NC(=O)[C@H](Cc2c[nH]c3ccccc23)NC(=O)[C@@H]2CSCC(=O)CSC[C@H](NC(=O)[C@H](CO)NC1=O)C(=O)N[C@@H](Cc1ccc(-c3ccccc3)cc1)C(=O)N[C@@H](CCC(N)=O)C(=O)N2` [Compound 26, [Ac]-K(1c)SC(2a)[Bip]QC(2a)W[2-Nal]LE(1c)R-[NH2]] (Ac-KSC[Bip]QCW[2Nal]LER-NH2; lactam 1-10; linker 3-6 via CH2COCH2), for which the Ki in experiment [1] (setting [6]) is above 1000 nM. Further, the IC50 in experiment [2] (setting [5]) was above 1000 nM.

Take `CC(=O)N[C@H]1CCCCNC(=O)CC[C@@H](C(=O)N[C@@H](CCCNC(=N)N)C(N)=O)NC(=O)[C@H](CC(C)C)NC(=O)[C@H](Cc2ccc3ccccc3c2)NC(=O)[C@H](Cc2ccc(OCCN)cc2)NC(=O)[C@@H]2CSCC(=O)CSC[C@H](NC(=O)[C@H](CO)NC1=O)C(=O)N[C@@H](Cc1c[nH]c3ccccc13)C(=O)N[C@@H](CCC(N)=O)C(=O)N2` [Compound 29, [Ac]-K(1c)SC(2a)WQC(2a)[Y(2-aminoethoxy)][2-Nal]LE(1c)R-[NH2]] (Ac-KSCWQC[AEF][2Nal]LER-NH2; lactam 1-10; linker 3-6 via CH2COCH2): the inhibition constant (Ki) in experiment [1] (Table 2-9b, read-out: Ki IL-23R) was 0.64 nM; in experiment [1] (setting [6]), 0.68 nM. In experiment [2] (Table 2-9b, DB cells, read-out: IC50 (pSTAT3)), the IC50 worked out at 19.7 nM.

Consider `CC(C)C[C@@H]1NC(=O)[C@H](Cc2ccc3ccccc3c2)NC(=O)[C@H](Cc2c[nH]c3ccccc23)NC(=O)[C@@H]2CSCC(=O)CSC[C@H](NC(=O)[C@H](CO)NC(=O)CCNC(=O)CC[C@@H](C(=O)N[C@@H](CCCNC(=N)N)C(N)=O)NC1=O)C(=O)N[C@@H](Cc1c[nH]c3ccccc13)C(=O)N[C@@H](CCC(N)=O)C(=O)N2` [Compound 36, [bAla](1c)*SC(2a)WQC(2a)W[2-Nal]LE(1c)R-[NH2]] (HELM PEPTIDE1{[bAla].S.C.W.Q.C.W.[O=C([C@H](Cc1ccc2ccccc2c1)N[*:1])[*:2]].L.E.R.[am]}|CHEM1{[O=C(C[*:1])C[*:2]]}$PEPTIDE1,CHEM1,3:R3-1:R1|PEPTIDE1,CHEM1,6:R3-1:R2|PEPTIDE1,PEPTIDE1,1:R1-10:R3$$$V2.0), for which, in experiment [1] (setting [6]), the Ki is above 1000 nM. Also, the half-inhibitory concentration (IC50) in experiment [2] (setting [5]) was above 1000 nM.

Consider `CC(=O)N[C@@H](CC(=O)O)C(=O)N[C@H]1CSCC(=O)CSC[C@@H](C(=O)N[C@@H](CCCNC(=N)N)C(N)=O)NC(=O)[C@](C)(CC(C)C)NC(=O)[C@H](Cc2c[nH]c3ccccc23)NC(=O)[C@H](Cc2ccc3ccccc3c2)NC(=O)[C@@H]2CSCC(=O)CSC[C@H](NC(=O)[C@H](CCC(N)=O)NC1=O)C(=O)N[C@@H](Cc1c[nH]c3ccccc13)C(=O)N[C@@H](CCC(N)=O)C(=O)N2` [Compound 62, [Ac]-DC(1a)QC(2a)WQC(2a)[2-Nal]W[2-Me-Leu]C(1a)R-[NH2]] (Ac-DCQCWQC[2Nal]W[αMeL]CR-NH2; linker 2-11, 4-7 via CH2COCH2), for which the Ki in experiment [1] was above 1000 nM. Moreover, the IC50 in experiment [2] is above 1000 nM.

Consider `CC(=O)N[C@@H](CC(=O)O)C(=O)N[C@H]1CSCC(=O)CSC[C@@H](C(=O)N[C@@H](CCCNC(=N)N)C(N)=O)NC(=O)[C@](C)(CC(C)C)NC(=O)[C@H](Cc2c[nH]c3ccccc23)NC(=O)[C@H](Cc2ccc(O)cc2)NC(=O)[C@@H]2CSCC(=O)CSC[C@H](NC(=O)[C@H](CCC(N)=O)NC1=O)C(=O)N[C@@H](Cc1c[nH]c3ccccc13)C(=O)N[C@@H](CCC(N)=O)C(=O)N2` [Compound 63, [Ac]-DC(1a)QC(2a)WQC(2a)YW[2-Me-Leu]C(1a)R-[NH2]] (Ac-DCQCWQCYW[αMeL]CR-NH2; linker 2-11, 4-7 via CH2COCH2), for which the Ki in experiment [1] was above 1000 nM. Further, the IC50 in experiment [2] was above 1000 nM.
